Consider seven compounds from US20260234165A1, “MACROCYCLIC COMPOUNDS, PREPARATION METHOD THEREFOR, AND USE THEREOF” (GENFLEET THERAPEUTICS (SHANGHAI) INC., priority 2004, published 2026).

The structures appear in SMILES notation. Where two headings read alike, the source gives them in different places.

Data set [1] can be described thus: Pharmacokinetic study in rats. Particulars: male SD rats; for AUC / Cmax: PO (intragastric), dose 10 mg/kg. It is filed as in vivo, Sprague-Dawley (SD) rats. From the text: A total of 6 healthy adult male Sprague-Dawley (SD) rats were provided by Zhejiang Vital River Laboratory Animal Technology Co., Ltd. For each test compound, 6 healthy adult male SD rats were selected and randomly divided into 2 groups: an intravenous administration (IV) group and an intragastric administration (PO) group. The LC-MS/MS method was used to determine the drug concentrations in the plasma of rats at different time points after intravenous and intragastric administration of the test compounds. This experiment was intended to investigate the pharmacokinetic performance of the test compounds in rats and to evaluate the pharmacokinetic characteristics. Each drug used in the experiment was prepared from the test compound powder: An appropriate amount of test compound powder was weighed out, and appropriate amounts of DMSO, a 10% aqueous Solutol HS 15 solution, and a 6% aqueous HP-β-CD solution were sequentially added according to a volume ratio of 5:10:85. The mixture was vortexed and sonicated until clarification. The final concentration of the drug in the IV group was 0.5 mg/mL, and the final concentration of the drug in the PO group was 1 mg/mL; the concentrations could be adjusted according to actual needs. For the drug in the PO group of Z504, an appropriate amount of test compound powder was weighed out, and an appropriate amount of 0.5% MC+0.2% Tween 80 aqueous solution was added. The mixture was well mixed by vortexing to give a 1 mg/mL homogeneous suspension: the concentration could be adjusted according to actual needs.
All experimental rats were fasted overnight, and food intake was resumed 4 h after administration. For the rats in the IV group, the administration volume was set at 2 mL/kg, with Z554 and Z915 administered at a dose of 0.5 mg/kg and the other compounds at a dose of 1 mg/kg. For the rats in the PO group, the administration volume was 10 mL/kg and the dose was 10 mg/kg. The administration amount was adjusted according to the body weight of the rats on the day of administration. In the experiment, blood samples were collected from the rats in the IV group at multiple time points (0.0833 h, 0.25 h, 0.5 h, 1 h, 2 h, 4 h, 7 h, and 24 h) after administration, while blood samples were collected from the PO group at 0.25 h, 0.5 h, 1 h, 2 h, 4 h, 7 h, and 24 h after administration, with approximately 100 μL collected each time via the orbital blood collection method.
The blood samples were placed in centrifuge tubes containing EDTA-K2 and centrifuged at 8000 rpm for 4 min within 30 min to separate the supernatant plasma. The resulting plasma samples were stored at −20° C. for later use. For sample analysis, 20 μL of each of plasma samples and calibration standards was added to a 96-well plate, and 160 μL of acetonitrile containing 100 ng/mL tolbutamide was added. The samples were vortexed for 5 min for uniform mixing, and then centrifuged at 4000 rpm for 15 min. After the centrifugation was completed, 50 μL of supernatant was added to a 96-well plate containing 150 μL of deionized water. The plate was then sealed and shaken for uniform mixing. Sample analysis was performed by LC-MS/MS.
The sampling volume could be adjusted according to actual needs, but the final concentration should be kept unchanged.

Data set [2] has as its system p-ERK in NCI-H441 cells (KRAS G12V mutation). Nature of the data set: Cell p-ERK assay (HTRF) in NCI-H441 cells. Particulars: NCI-H441 cells, 3 h compound incubation, HTRF p-ERK T202/Y204, read-out: H441 p-ERK IC50. It is filed as cell-based, human. In a few lines:
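Seed 10000 AsPC-1 or 20000 NCI-H441 cells/well, overnight 37 °C/5% CO2. Cpd 3.16-fold series, 0.1% DMSO final, 3 h. Lyse 30 min, HTRF p-ERK (T202/Y204) Ab 4 h. IC50: 4-parameter fit of IR% normalised to DMSO and blank.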

Where [3] appears, read: Sprague-Dawley, rat, plasma, IV, dose 1 mg/kg.
[4] abbreviates: Sprague-Dawley, rat, plasma, read-out: AUC.
The mark [5] stands for this setting: Sprague-Dawley, rat, plasma, read-out: Cmax.

`CCn1c(-c2cc(C#CCN3CCN(C)C(=O)C3)cnc2[C@H](C)OC)c2c3cc(ccc31)-c1csc(n1)C[C@H](NC(=O)[C@H]1[C@H](C)[C@@H]1C)C(=O)N1CCC[C@H](N1)C(=O)OCC(C)(C)C2` (atropisomer, axis not shown; (Ra)) [Compound Z793] had a clearance in data set [1] (setting [3]) of 3.16 mL/min/kg. The AUC in data set [1] (setting [4]) worked out at 5920 ng·h/mL. The Cmax in data set [1] (setting [5]) turned out to be 2040 ng/mL. Further, the IC50 in data set [2] (Homo sapiens, NCI-H441, 3 h) turned out to be 0.09 nM.
The compound `CCn1c(-c2cc(C#CCN3CCCOCC3)cnc2[C@H](C)OC)c2c3cc(ccc31)-c1csc(n1)C[C@H](NC(=O)[C@H]1[C@H](C)[C@@H]1C)C(=O)N1CCC[C@H](N1)C(=O)OCC(C)(C)C2` (single isomer, unassigned) [Compound Z504] registered a clearance in data set [1] (setting [3]) of 4 mL/min/kg. The AUC in data set [1] (setting [4]) stood at 5320 ng·h/mL. For the same compound, the Cmax in data set [1] (setting [5]) stood at 605 ng/mL. Moreover, the IC50 in data set [2] (Homo sapiens, NCI-H441, 3 h) worked out at 0.55 nM.
Turning to `CO[C@@H](C)c1ncc(C#CCN2CCCOCC2)cc1-c1c2c3cc(ccc3n1CC(F)(F)F)-c1csc(n1)C[C@H](NC(=O)[C@H]1[C@H](C)[C@@H]1C)C(=O)N1CCC[C@H](N1)C(=O)OCC(C)(C)C2` (atropisomer, axis not shown; (Ra)) [Compound Z700, N-((6^3S,4S,Z)-1^1-(2,2,2-trifluoroethyl)-(Ra)-1^2-(2-((S)-1-methoxyethyl)-(5-(3-(1,4-oxazepan-4-yl)prop-1-yn-1-yl))-pyridin-3-yl)-10,10-dimethyl-5,7-dioxo-6^1,6^2,6^3,6^4,6^5,6^6-hexahydro-1^1H-8-oxa-2(4,2)-thiazola-1(5,3)-indola-6(1,3)-pyridazinacycloundecaphane-4-yl)-2,3-dimethylcyclopropane-1-carboxamide], in data set [1] (IV, dose 1 mg/kg), the “CL” value was determined as 7.66 mL/min/kg. Also, in data set [1], the “AUC” value amounted to 3259 ng·h/mL and the “Cmax” value is given as 681 ng/mL. In addition, in data set [2], the IC50 came out at 0.2 nM.
In data set [1] (Sprague-Dawley, rat, plasma, IV, dose 0.5 mg/kg), `CCn1c(-c2cc(C#CCN3CCCOCC3)cnc2[C@H](C)OC)c2c3cc(ccc31)-c1csc(n1)C[C@H](NC(=O)CC1CC1)C(=O)N1CCC[C@H](N1)C(=O)OCC(C)(C)C2` (atropisomer, axis not shown; (Ra)) [Compound Z915] gave a clearance of 6 mL/min/kg. For the same compound, the AUC in data set [1] (setting [4]) came out at 6840 ng·h/mL. For the same compound, in data set [1] (setting [5]), the Cmax was 1730 ng/mL. Also, the IC50 in data set [2] (Homo sapiens, NCI-H441, 3 h) stood at 0.68 nM.
Compound `CCn1c(-c2cc(C#CCN3CCCOCC3)cnc2[C@H](C)OC)c2c3cc(ccc31)-c1csc(n1)C[C@H](NC(=O)[C@H]1C[C@@H]1C)C(=O)N1CCC[C@H](N1)C(=O)OCC(C)(C)C2` (single isomer, unassigned) [Compound Z604] gave a clearance in data set [1] (setting [3]) of 2.46 mL/min/kg. Also, the AUC in data set [1] (setting [4]) stood at 14600 ng·h/mL. The Cmax in data set [1] (setting [5]) came to 3010 ng/mL. Further, the IC50 in data set [2] (Homo sapiens, NCI-H441, 3 h) turned out to be 0.26 nM.
In data set [1] (setting [3]), `CCn1c(-c2cc(C#CCN3CCS(=O)(=O)CC3)cnc2[C@H](C)OC)c2c3cc(ccc31)-c1csc(n1)C[C@H](NC(=O)[C@H]1[C@H](C)[C@@H]1C)C(=O)N1CCC[C@H](N1)C(=O)OCC(C)(C)C2` (atropisomer, axis not shown; (Ra)) [Compound Z838, (1r,2R,3S)—N-((6^3S,4S,Z)—(Ra)-1^2-(5-(3-(1,1-dioxidothiomorpholino)prop-1-yn-1-yl)-2-((S)-1-methoxyethyl)pyridin-3-yl)-1^1-ethyl-10,10-dimethyl-5,7-dioxo-6^1,6^2,6^3,6^4,6^5,6^6-hexahydro-1^1H-8-oxa-2(4,2)-thiazola-1(5,3)-indola-6(1,3)-pyridazinacycloundecaphane-4-yl)-2,3-dimethylcyclopropane-1-carboxamide] showed a clearance of 2.51 mL/min/kg. Further, the AUC in data set [1] (setting [4]) came out at 3900 ng·h/mL. In addition, the Cmax in data set [1] (setting [5]) was found to be 1400 ng/mL. In addition, the IC50 in data set [2] (Homo sapiens, NCI-H441, 3 h) is 0.15 nM.
For `CCn1c(-c2cc(C#CCN3CCCOCC3)cnc2[C@H](C)OC)c2c3cc(ccc31)-c1csc(n1)C[C@H](NC(=O)CC(C)C)C(=O)N1CCC[C@H](N1)C(=O)OCC(C)(C)C2` (single isomer, unassigned) [Compound Z803], in that order: 1.83 mL/min/kg, 8400 ng·h/mL, 1110 ng/mL and 1.14 nM.
